Each compound was assayed against recombinant full length HPK-1 enzyme (Homo sapiens (Human), UniProt Q92918) (assay: HPK-1 biochemical enzyme assay (ADP-Glo kinase inhibition)). Settings: recombinant full length HPK-1 6.8 nM, 10 μM ATP, 12.5 μM MBP, 30 mins at 25° C.
How it was run: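 Recombinant full-length human HPK-1 (6.8 nM) incubated 30 min at 25° C. with 10 μM ATP and 12.5 μM swine MBP in 40 mM Tris pH 7.4, 20 mM MgCl2, 50 μM DTT, 0.1 mg/mL BSA. ADP measured by ADP-Glo; IC50 from 10 concentrations, normalized to no-enzyme and vehicle controls.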

Sequence of recombinant full length HPK-1 enzyme (Q92918 whole entry, species assumed): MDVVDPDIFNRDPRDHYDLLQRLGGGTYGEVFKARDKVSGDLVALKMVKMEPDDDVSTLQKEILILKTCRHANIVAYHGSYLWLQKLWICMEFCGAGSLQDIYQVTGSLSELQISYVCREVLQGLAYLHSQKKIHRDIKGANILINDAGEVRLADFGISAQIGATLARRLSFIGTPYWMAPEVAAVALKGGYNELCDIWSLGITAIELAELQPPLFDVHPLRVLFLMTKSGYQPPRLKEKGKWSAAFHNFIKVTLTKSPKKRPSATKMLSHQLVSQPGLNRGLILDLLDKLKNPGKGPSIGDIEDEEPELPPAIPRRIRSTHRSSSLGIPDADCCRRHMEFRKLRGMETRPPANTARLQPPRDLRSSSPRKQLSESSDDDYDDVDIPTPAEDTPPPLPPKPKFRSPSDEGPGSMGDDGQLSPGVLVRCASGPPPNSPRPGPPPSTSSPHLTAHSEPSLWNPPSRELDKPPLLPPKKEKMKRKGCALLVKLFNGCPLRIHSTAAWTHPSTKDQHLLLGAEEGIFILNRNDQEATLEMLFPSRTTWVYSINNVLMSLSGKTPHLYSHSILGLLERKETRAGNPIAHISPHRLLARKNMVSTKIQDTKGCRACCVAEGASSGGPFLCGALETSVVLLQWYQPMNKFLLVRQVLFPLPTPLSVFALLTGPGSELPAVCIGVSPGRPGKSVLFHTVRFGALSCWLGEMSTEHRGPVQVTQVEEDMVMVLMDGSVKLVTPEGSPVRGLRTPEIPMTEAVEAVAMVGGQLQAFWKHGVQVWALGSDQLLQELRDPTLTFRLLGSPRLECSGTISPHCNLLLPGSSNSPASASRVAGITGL

SMILES	IC50 [µM]
Cc1c(Nc2cc[nH]c(=O)c2C(=O)Nc2ccc(N3C[C@@H]4C[C@H]3CN4C)cc2)cnc2c1NCCO2 [Example 236, 4-((8-methyl-2,3-dihydro-1H-pyrido[2,3-b][1,4]oxazin-7-yl)amino)-N-(4-((1S,4S)-5-methyl-2,5-diazabicyclo[2.2.1]heptan-2-yl)phenyl)-2-oxo-1,2-dihydropyridine-3-carboxamide]	0.01 to 0.1
Cc1c(Nc2cc[nH]c(=O)c2C(=O)Nc2ccc3cn[nH]c3c2)cnc2c1NCCO2 [Example 237, N-(1H-indazol-6-yl)-4-((8-methyl-2,3-dihydro-1H-pyrido[2,3-b][1,4]oxazin-7-yl)amino)-2-oxo-1,2-dihydropyridine-3-carboxamide]	0.01 to 0.1
Cc1c(Nc2cc[nH]c(=O)c2C(=O)Nc2ccc(N3CCN(CCC4CNC4)CC3)cc2)cnc2c1NCCO2 [Example 238, N-(4-(4-(2-(azetidin-3-yl)ethyl)piperazin-1-yl)phenyl)-4-((8-methyl-2,3-dihydro-1H-pyrido[2,3-b][1,4]oxazin-7-yl)amino)-2-oxo-1,2-dihydropyridine-3-carboxamide]	≤ 0.01
Cc1c(Nc2cc[nH]c(=O)c2C(=O)Nc2ccc3c(c2)N(C)C(=O)CO3)cnc2c1NCCO2 [Example 239, 4-((8-methyl-2,3-dihydro-1H-pyrido[2,3-b][1,4]oxazin-7-yl)amino)-N-(4-methyl-3-oxo-3,4-dihydro-2H-benzo[b][1,4]oxazin-6-yl)-2-oxo-1,2-dihydropyridine-3-carboxamide]	0.1 to 1
Cc1c(Nc2cc[nH]c(=O)c2C(=O)Nc2ccc3c(c2)NCCO3)cnc2c1NCCO2 [Example 240, N-(3,4-dihydro-2H-benzo[b][1,4]oxazin-6-yl)-4-((8-methyl-2,3-dihydro-1H-pyrido[2,3-b][1,4]oxazin-7-yl)amino)-2-oxo-1,2-dihydropyridine-3-carboxamide]	0.01 to 0.1
Cc1c(Nc2cc[nH]c(=O)c2C(=O)Nc2ccc(N3CCN(C)C[C@H]3C)cc2)cnc2c1NCCO2 [Example 241, (R)-N-(4-(2,4-dimethylpiperazin-1-yl)phenyl)-4-((8-methyl-2,3-dihydro-1H-pyrido[2,3-b][1,4]oxazin-7-yl)amino)-2-oxo-1,2-dihydropyridine-3-carboxamide]	≤ 0.01
Cc1c(Nc2cc[nH]c(=O)c2C(=O)Nc2ccc(C(N)=O)cc2)cnc2c1NCCO2 [Example 242, N-(4-carbamoylphenyl)-4-((8-methyl-2,3-dihydro-1H-pyrido[2,3-b][1,4]oxazin-7-yl)amino)-2-oxo-1,2-dihydropyridine-3-carboxamide]	0.01 to 0.1
CC(=O)Nc1ccc(NC(=O)c2c(Nc3cnc4c(c3C)NCCO4)cc[nH]c2=O)cn1 [Example 243, N-(6-acetamidopyridin-3-yl)-4-((8-methyl-2,3-dihydro-1H-pyrido[2,3-b][1,4]oxazin-7-yl)amino)-2-oxo-1,2-dihydropyridine-3-carboxamide]	0.1 to 1

Other lines, results leading:

IC50 [µM]	SMILES
0.01 to 0.1	Cc1c(Nc2cc[nH]c(=O)c2C(=O)Nc2ccc3c(c2)OCO3)cnc2c1NCCO2 [Example 244, N-(benzo[d][1,3]dioxol-5-yl)-4-((8-methyl-2,3-dihydro-1H-pyrido[2,3-b][1,4]oxazin-7-yl)amino)-2-oxo-1,2-dihydropyridine-3-carboxamide]
0.1 to 1	Cc1c(Nc2cc[nH]c(=O)c2C(=O)Nc2cccc(S(=O)(=O)CCO)c2)cnc2c1NCCO2 [Example 245, N-(3-((2-hydroxyethyl)sulfonyl)phenyl)-4-((8-methyl-2,3-dihydro-1H-pyrido[2,3-b][1,4]oxazin-7-yl)amino)-2-oxo-1,2-dihydropyridine-3-carboxamide]
0.01 to 0.1	Cc1c(Nc2cc[nH]c(=O)c2C(=O)Nc2ccc3c(c2)NCCC3)cnc2c1NCCO2 [Example 246, 4-((8-methyl-2,3-dihydro-1H-pyrido[2,3-b][1,4]oxazin-7-yl)amino)-2-oxo-N-(1,2,3,4-tetrahydroquinolin-7-yl)-1,2-dihydropyridine-3-carboxamide]
≤ 0.01	Cc1c(Nc2cc[nH]c(=O)c2C(=O)Nc2ccc(N3CCC(C(N)=O)CC3)cc2)cnc2c1NCCO2 [Example 247, N-(4-(4-carbamoylpiperidin-1-yl)phenyl)-4-((8-methyl-2,3-dihydro-1H-pyrido[2,3-b][1,4]oxazin-7-yl)amino)-2-oxo-1,2-dihydropyridine-3-carboxamide]
0.01 to 0.1	Cc1c(Nc2cc[nH]c(=O)c2C(=O)Nc2ccc3ncsc3c2)cnc2c1NCCO2 [Example 248, N-(benzo[d]thiazol-6-yl)-4-((8-methyl-2,3-dihydro-1H-pyrido[2,3-b][1,4]oxazin-7-yl)amino)-2-oxo-1,2-dihydropyridine-3-carboxamide]
0.01 to 0.1	Cc1nc2ccc(NC(=O)c3c(Nc4cnc5c(c4C)NCCO5)cc[nH]c3=O)cc2s1 [Example 249, 4-((8-methyl-2,3-dihydro-1H-pyrido[2,3-b][1,4]oxazin-7-yl)amino)-N-(2-methylbenzo[d]thiazol-6-yl)-2-oxo-1,2-dihydropyridine-3-carboxamide]
0.01 to 0.1	Cc1c(Nc2cc[nH]c(=O)c2C(=O)Nc2ccc3c(c2)CCC(=O)N3C)cnc2c1NCCO2 [Example 250, 4-((8-methyl-2,3-dihydro-1H-pyrido[2,3-b][1,4]oxazin-7-yl)amino)-N-(1-methyl-2-oxo-1,2,3,4-tetrahydroquinolin-6-yl)-2-oxo-1,2-dihydropyridine-3-carboxamide]
≤ 0.01	CCC(=O)N1CCN(c2ccc(NC(=O)c3c(Nc4cnc5c(c4C)NCCO5)cc[nH]c3=O)cc2)CC1 [Example 251, 4-((8-methyl-2,3-dihydro-1H-pyrido[2,3-b][1,4]oxazin-7-yl)amino)-2-oxo-N-(4-(4-propionylpiperazin-1-yl)phenyl)-1,2-dihydropyridine-3-carboxamide]
0.01 to 0.1	Cc1c(Nc2cc[nH]c(=O)c2C(=O)Nc2ccc3c(c2)CCC(=O)N3)cnc2c1NCCO2 [Example 252, 4-((8-methyl-2,3-dihydro-1H-pyrido[2,3-b][1,4]oxazin-7-yl)amino)-2-oxo-N-(2-oxo-1,2,3,4-tetrahydroquinolin-6-yl)-1,2-dihydropyridine-3-carboxamide]
0.1 to 1	COc1ccc(Oc2ccc(NC(=O)c3c(Nc4cnc5c(c4C)NCCO5)cc[nH]c3=O)cc2)cc1 [Example 253, N-(4-(4-methoxyphenoxy)phenyl)-4-((8-methyl-2,3-dihydro-1H-pyrido[2,3-b][1,4]oxazin-7-yl)amino)-2-oxo-1,2-dihydropyridine-3-carboxamide]
0.01 to 0.1	Cc1c(Nc2cc[nH]c(=O)c2C(=O)Nc2ccc3c(c2)CCCN3)cnc2c1NCCO2 [Example 254, 4-((8-methyl-2,3-dihydro-1H-pyrido[2,3-b][1,4]oxazin-7-yl)amino)-2-oxo-N-(1,2,3,4-tetrahydroquinolin-6-yl)-1,2-dihydropyridine-3-carboxamide]
0.01 to 0.1	Cc1c(Nc2cc[nH]c(=O)c2C(=O)Nc2ccc(-n3ccnc3)cc2)cnc2c1NCCO2 [Example 255, N-(4-(1H-imidazol-1-yl)phenyl)-4-((8-methyl-2,3-dihydro-1H-pyrido[2,3-b][1,4]oxazin-7-yl)amino)-2-oxo-1,2-dihydropyridine-3-carboxamide]
≤ 0.01	Cc1c(Nc2cc[nH]c(=O)c2C(=O)Nc2ccc(N3CCN(C4COC4)CC3)cc2)cnc2c1NCCO2 [Example 256, 4-((8-methyl-2,3-dihydro-1H-pyrido[2,3-b][1,4]oxazin-7-yl)amino)-N-(4-(4-(oxetan-3-yl)piperazin-1-yl)phenyl)-2-oxo-1,2-dihydropyridine-3-carboxamide]

Source: patent US20250282794A1 (CURADEV PHARMA LTD, priority 2022, published 2025)
